The numbers were not newly measured in paper PMC11913096, “MBX 2109, A Once-Weekly Parathyroid Hormone Replacement Therapy Prodrug: Phase 1, First-In-Human, Randomized Trial” (The Journal of Clinical Endocrinology and Metabolism, 2024), which cites them from elsewhere.

Where no end group is shown, it is not given here.

In one series the test system is patients with hypoPT. The conditions noted are these: once-daily, placebo 5%. The protocol: (§1) Because PTH deficiency is the etiology for chronic hypoPT, hormone replacement therapy with PTH would be the ideal treatment ([1], [2]). However, the short half-lives (t1/2) of unmodified PTH(1-34) and PTH(1-84) peptides necessitate frequent administration to normalize serum calcium levels ([2]). For example, twice-daily subcutaneous (SC) injection of teriparatide, a recombinant PTH(1-34) analogue with a short half-life (∼1 hour) ([2]), was more efficacious than once-daily administration in normalizing serum calcium and reducing hypercalciuria in patients with hypoPT ([9]). Continuous SC (pump ...

The procedure of series [1]:
as §1

For “palopegteriparatide (SVSEIQLMHNLGKHLNSMERVEWLRKKLQDVHNF; also: methoxy-PEG carrier prodrug, attachment not given here; UniProt P01270 32-65, looked up, fragment) [prodrug of PTH(1-34) conjugated to a methoxypolyethylene glycol (PEG) carrier]”, in the series on patients with hypoPT, the “Patients achieving composite primary end point (normalizing serum calcium and eliminating active vitamin D and calcium supplements)” value is reported as 79%. For the substance teriparatide, the Half-life in series [1] is ~1 h.
